Assay results as given in US20100217003A1, “1,2,3,4-TETRAHYDROISOQUINOLINE DERIVATIVES HAVING EFFECTS OF PREVENTING AND TREATING DEGENERATIVE AND INFLAMMATORY DISEASES” (priority 2006, published 2010).

Tests used:
[1] = Drug stability against liver microsomal enzymes; type: in vitro ADME, rat
Procedure: Evaluation for Drug Stability
1 mM EHMTIQ (11a) was added to 1 mg samples of white rat liver microsomes, and the samples were incubated at 37° C. for 0, 30, 120 and 240 minutes in the presence of a NADPH-regeneration system (2.6 mM β-NADP^+, 10 mM glucose-6-phosphate, 4 UI/ml glucose-6-phosphate dehydrogenase and 10 mM MgCl2). Perchloric acid was added to the sample to make a final concentration of 500 mM and then the reaction was stopped. The reaction mixture was centrifuged at 16,000×g for 20 minutes. The supernatant solution (120 l) was purified using a Waters HPLC system [717 plus autosampler, 515 pump, and Symmetry C18 column (4.6 mm×150 mm, […])] using a 5-30% linear gradient of acetonitrile as mobile phase. EHMTIQ (11a) was detected at 254 nm using a Waters 486 UV detector and analyzed using EMPOWER software (Millipore Corporation, Milford, Mass., USA).
Since almost all micromolecules are degraded by enzymes in the liver, the stability of a medicine to these enzymes is very important. To evaluate bioavailability of EHMTIQ (11a) in vivo, the degradation rate of EHMTIQ (11a) by liver microsomal enzyme was measured, and neutralized to remaining EHMTIQ after exposure to liver microsomes.

[2] = tested on: mouse liver cell; assay: Toxicity to mouse liver cell; type: in vivo; conditions: FIG. 16

## CCC(=O)N1CCc2cc(OC)c(O)cc2C1 [EHMTIQ (11a), 2-ethylcarbonyl-7-hydroxy-6-methoxy-1,2,3,4-tetrahydroisoquinoline]
[1]; 2-hour exposure to liver microsomes
  EHMTIQ degraded: about 12.52%
[1]; 30-minute exposure to liver microsomes
  EHMTIQ remained: ~95%
[1]; liver microsomes, NADPH-regeneration system
  degeneration rate of EHMTIQ: 1.115±0.203 nmole (EHMTIQ)/min/mg (liver microsomal protein)
[2]
  toxicity to a mouse liver cell: non-toxicity
